# Test results reported in patent US7179937B2, “Cyclopentenone derivatives for cancer therapy” (Dabur Research Foundation, priority 2001, dated 2007).
# Tests used:
# [1] = tested on: Caspase-3; experiment: Caspase-3 induction in oral cancer cells (KB), colorimetric DEVD-pNA; assay type: cell-based, human; conditions: 5 ug/ml
# Protocol: Human squamous cell carcinoma (KB) were plated in a 25 cm^2 flask. When cultures achieved confluence, the cyclopentenone derivative of structure 20 was added to cells. The final concentration of derivative of the structure 20 in the flask was 5 ug/ml. The untreated wells served as controls. The cells were incubated with the drug for 2 different time points of 6 and 16 hours at 37° C. The cells were collected by centrifugation at 2000 r.p.m. for 10 minutes. The supernatant was gently removed and discarded while Lysis Buffer was added to the cell pellet (25 ul of lysis buffer per 1×10^4 cell). The cell lysate was incubated on ice for 10 minutes and centrifuged at 10,000-×g for 1 minute. The supernatant was transferred to a new tube and kept on ice. 50 ul of the cell lysate was added in a 96 well plate. To this was added 2× Reaction Buffer. Prior to using reaction buffer 10 ul of fresh DTT stock per 1 ml of 2× Reaction Buffer was added. To each well 5 ul of Caspase-3 colorimetric substrate (DEVD-pNA) was added. The plate was incubated for 1–2 hours at 37° C. and read at 405 nm.
# The level of caspase enzymatic activity in the cell lysate is directly proportional to the absorbance at 405 nm.
# [2] = tested on: VEGF; experiment: VEGF levels in endothelial cells (ECV304), ELISA; assay type: cell-based, human; conditions: 5 ug/ml, 4 hours
# Protocol: Human endothelial cells (ECV304) were plated at the density of 8–10×10^5 cells per 2 ml in a six well plate. After an overnight incubation of cells at 37° C., cyclopentenone derivatives at a concentration of 5 ug/ml was added to the wells. The untreated wells served as controls. The plates were incubated for 4 hours at 37° C. The medium was collected from all the wells (control and treated) and spun down at 2000 r.p.m to remove the cellular material. The supernatant was collected and used for ELISA (quantikine human VEGF, R&D Systems). The assay employs the quantitative sandwich enzyme immuonoassay technique. A monoclonal antibody specific for VEGF has been pre-coated onto a microplate. Standards and samples were pipetted into the wells and VEGF present was bound by the immobilized antibody. After washing away the unbound substances, an enzyme-linked polyclonal antibody specific for VEGF was added to the wells. Following a wash to remove any unbound antibody-enzyme reagent, a substrate solution was added to the wells and color developed in proportion to the amount of VEGF bound in the initial step. The optical density of each well was determined within 30 minutes using a microplate reader set to 450 nm and reference wavelength at 540 nm. The VEGF levels were inhibited by the addition of cyclopentenone derivatives in vitro.
# [3] = tested on: Tubulin; experiment: in vitro tubulin polymerization (assembly) assay, absorbance at 340 nm; assay type: biochemical; conditions: tubulin 1 mg/ml, 37° C., pH 6.9; read-out: IC50 values for inhibition of Tubulin Polymerization
# Protocol: The cyclopentenone derivatives were checked for their effects on tubulin polymerization in in vitro. Briefly, the tubulin assembly reaction was performed at 37° C. in buffer containing 80 mM PIPES, 1 mM EGTA, 1.0 mM GTP and 1 mM MgCl2 (pH 6.9) at a tubulin concentration of 1 mg/ml in the presence or absence of the cyclopentenone derivatives. The final concentration of the cyclopentenone derivatives in the reaction mixture varied from 1–5 uM. The derivatives were dissolved in 0.1% DMSO. The control experiments were carried out with 0.1% DMSO. The tubulin polymerization was followed by measurement of the absorbance of the solution at 340 nm every 30 seconds. […] Thus the cyclopentenone derivatives mediated their observed anticancer activities by tubulin depolymerization.
# [4] = tested on: PTC tumor xenografts; experiment: In vivo anti-tumor activity on PTC (colon) xenografted mice; parameters: species or system Balb/c athymic mice; conditions: PTC xenograft, intravenously 0.5 mg/100 μL once a day for 14 days
# Protocol: PTC tumor xenografts were grown in Balb/c athymic mice by subcutaneous inoculation of a single cell suspension of PTC cells (15×10^6 cells/100 μL). The tumor bearing animals were divided into 2 groups of three animals each including one group comprising untreated control animals. Treatment with compound of formula no. 49 was initiated when the average tumor volumes, as measured using a vernier caliper, were […]. Compound of formula no. 49 was administered intravenously to the assigned group of tumor bearing animals at a dose of 0.5 mg/100 μL once a day and the treatment was continued for a period of 14 days.
# The antitumor activity of the compound was monitored by measuring tumor volumes every fourth day using the formula W*W*L*0.4 (W=smaller diameter, L=larger diameter). The percentage inhibition of tumor growth was calculated using the formula (1-tumor volume-treated/tumor volume-control)*100. […] Compound of formula no. […] The percentage inhibition of tumor growth caused compound of formula no. 49 as compared to controls on day 23 was 45.8%.
Compound,Percent Reduction in VEGF [2],IC50 [3],other results
COc1ccc(C2=C(c3cc(OC)c(OC)c(OC)c3)C(=NO)CC2OC(C)=O)cc1 (stereo not shown) [Compound 20],2.0 ± 0.1%,–,"Percent Induction of Caspase-3, 6 hours ([1]; 6 hours): 13.6 ± 2.4%; Percent Induction of Caspase-3, 16 hours ([1]; 16 hours): 20.7 ± 3.1%"
COc1ccc(C2=C(c3cc(OC)c(OC)c(OC)c3)C(=NO)C(O)C2)cc1 (stereo not shown) [Compound 49],28.6 ± 1.9%,2300 ± 500 nM,antitumor activity on PTC xenografts (in words) [4]: significant antitumor activity
COc1ccc(C2=C(c3cc(OC)c(OC)c(OC)c3)C(=O)C(O)C2)cc1 (stereo not shown) [Compound 48],–,2100 ± 100 nM,–
COc1ccc(C2=C(c3cc(OC)c(OC)c(OC)c3)C(=O)CC2O)cc1O (stereo not shown) [Compound 39],–,1400 ± 600 nM,–
COc1ccc(C2=C(c3cc(OC)c(OC)c(OC)c3)/C(=N\O)C(O)C2)cc1F (stereo not shown) [Compound 66],–,2000 ± 600 nM,–
COc1ccc(C2=C(c3cc(OC)c(OC)c(OC)c3)C(=O)C(O)C2)cc1O (stereo not shown) [Compound 74],–,1800 ± 500 nM,–
